Measured values taken from patent US9149509B2, “Methods for improving neurological outcome after neural injury and neurodegenerative disease” (HENRY FORD HEALTH SYSTEM, priority 2009, dated 2015).

Legend:
[1] = test system: stroke (middle cerebral artery occlusion (MCAo)) rats; assay: Embolic middle cerebral artery occlusion (MCAo) stroke model in rats; format: in vivo, rat
Description: (§1) Effectiveness of treatment with thymosin β4 was tested in stroke (middle cerebral artery occlusion (MCAo)) rats and in experimental autoimmune encephalomyelitis (EAE) mice (a well-established in vivo model for multiple sclerosis). Both the stroke rats and the EAE mice were treated with 6 mg/kg thymosin β4 intraperitoneally (IP) in a volume of 0.3 mL twenty-four hours after stroke or after the day of immunization in the EAE model and then every three days (6 mg/kg IP) for four additional doses. An equal volume of saline was administered (IP) to a group of both stroke rats and EAE mice as a control. Bromodeoxyuridine (BrdU; 100 mg/kg) was administered (IP) daily for seven days, initiated 24 hours after MCAo to label proliferating cells. Behavioral tests (adhesive removable test and NSS (Neurological Severity Score)) were performed immediately before treatment and at days 1, 7, 14, 21, 28, 35, 42, 49, and 56 days after MCAo and up to 30 days in the EAE mouse model. All rats were sacrificed 56 days after MCAo; EAE mice were sacrificed at 30 days.

[2] = test system: experimental autoimmune encephalomyelitis (EAE) mice; assay: Experimental autoimmune encephalomyelitis (EAE) mouse model of multiple sclerosis; format: in vivo; conditions: 6 mg/kg IP, up to 30 days, vs saline control, p<0.01, FIG. 9
Description: as §1

[3] = embolic stroke rats, 6 mg/kg IP, vs saline control

For thymosin β4, the “number of myelinated axons (Bielschowsky and Luxol Fast Blue staining)” value ([1]; after MCAo, treated vs control, p<0.05, FIG. 4) was “increased”, the “cellular proliferation (BrdU expression, number of BrdU immunoreactive cells)” value ([1]; after MCAo, treated vs control, p<0.05, FIG. 8) was “increased” and the “number of oligodendrocyte progenitors and matured oligodendrocytes” value ([1]; after MCAo, treated vs control, p<0.05, FIGS. 5-7) was “increased”. For the same substance, the “functional improvement in behavioral tests (adhesive removal test, NSS)” value ([1]; beginning at 21 days after stroke onset, 6 mg/kg IP, p<0.05, FIG. 1-2) was “Significant functional improvement”, the “relative increase in BrdU expression in the striatum or myelinated region of the rat brain” value ([1]; embolic stroke rats, 6 mg/kg IP 24 h after stroke, then every three days for four additional doses, sacrificed 56 days after MCAo) was 42% and the “increase in CNP, a marker of mature oligodendrocytes” value [1, 3] was 11%. For the same substance, the “increase in NG-2, a marker of immature oligodendrocytes” value [1, 3] was 47% and the functional neurological score [2] was “robust improvement”.
